Read-outs that look alike come from different tables or passages of the source.
Tests used:
[1] = target: A/WSN/33 (H1N1) influenza virus FluPol (Influenza A virus, UniProt P03430); assay: biochemical; type: biochemical, influenza A/WSN/33 (H1N1) virus
[2] = target: SARS-CoV-2 nsp7/8/12 complex (Severe acute respiratory syndrome coronavirus 2, UniProt P0DTD1); assay: SARS-CoV-2 nsp7/8/12 in vitro activity assay; type: biochemical
[3] = target: FluPol (Influenza A virus, UniProt P03430); type: biochemical, influenza A/WSN/33 (H1N1) virus
FluPol, sequence (P03430 whole entry, looked up): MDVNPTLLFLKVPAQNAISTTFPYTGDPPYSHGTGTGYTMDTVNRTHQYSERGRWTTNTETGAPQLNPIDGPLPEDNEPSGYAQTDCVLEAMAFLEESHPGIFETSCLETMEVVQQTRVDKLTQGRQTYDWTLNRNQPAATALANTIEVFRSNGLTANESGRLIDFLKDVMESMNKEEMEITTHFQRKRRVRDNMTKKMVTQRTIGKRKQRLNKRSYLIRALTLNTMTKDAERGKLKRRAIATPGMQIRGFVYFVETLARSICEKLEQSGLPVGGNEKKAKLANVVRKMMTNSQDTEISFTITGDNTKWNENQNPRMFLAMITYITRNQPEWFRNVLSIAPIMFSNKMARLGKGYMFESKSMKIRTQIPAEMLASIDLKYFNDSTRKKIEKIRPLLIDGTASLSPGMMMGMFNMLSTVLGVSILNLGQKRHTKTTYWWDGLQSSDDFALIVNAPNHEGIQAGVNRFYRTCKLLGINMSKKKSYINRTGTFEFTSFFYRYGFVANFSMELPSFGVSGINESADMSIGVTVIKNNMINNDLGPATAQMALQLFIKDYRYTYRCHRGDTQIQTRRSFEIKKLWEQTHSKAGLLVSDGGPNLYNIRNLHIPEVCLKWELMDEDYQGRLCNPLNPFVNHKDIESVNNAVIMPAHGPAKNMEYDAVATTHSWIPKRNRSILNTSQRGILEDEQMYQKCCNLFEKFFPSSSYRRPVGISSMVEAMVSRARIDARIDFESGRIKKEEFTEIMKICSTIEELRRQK

[4] = tested on: influenza virus; conditions: read-out: EC90 influenza virus growth in cell culture; cited from earlier work

A/WSN/33 (H1N1) influenza virus FluPol, sequence (P03430 whole entry, looked up): as above

SMILES	FOLD CHANGE IC50 [1]	IC50 ([1]; read-out: FLUPOL IC50)	IC50 [1]	further results
O=C(NCc1ccccc1O)c1ccncc1 [VR18-01, N-[(2-hydrophenyl)methyl]pyridine-4-carboxamide]	1.4	34.2 mM		
O=C(NCc1cccc(O)c1)c1ccncc1 [VR18-02, N-[(3-hydrophenyl)methyl]pyridine-4-carboxamide]	0.5	94.8 mM		
C[n+]1ccc(C(=O)NCc2ccccc2)cc1 [FAV00A, N-methyl-4-benzylcarbamidopyridinium iodide, reference compound]	1		46.3 mM	IC50 [2]: 40.7 mM; inhibition of FluPol activity by cellular extract [3]: strong, concentration-dependent inhibition
O=C(NCc1ccccc1)c1cc[nH]c(=O)c1 [VR18-04, N-benzyl-2-oxo-1,2-dihydropyridine-4-carboxamide]	1.3		35.2 mM	
NC(=O)c1nc(F)cn([C@@H]2O[C@H](COP(=O)(O)OP(=O)(O)OP(=O)(O)O)[C@@H](O)[C@H]2O)c1=O [T-705 triphosphate, 6-fluoro-3,4-dihydro-4-[5-O-(hydroxy{[hydroxy(phosphonooxy)phosphinyl]oxy}phosphinyl)-β-d-ribofuranosyl]-3-oxo-2-pyrazinecarboxamide, reference compound]			0.011 mM	IC50 SARS-CoV-2 nsp7/8/12 RNA synthesis activity ([2]; in vitro, 30 mins, VR17-04 value estimated from the dose-response curve): non-inhibitory
C[n+]1ccc(C(=O)NCc2ccccc2O)cc1 [VR16-01, 4-{[(2-hydroxyphenyl)methyl]carbamoyl}-1-methylpyridin-1-ium]	0.6	78.2 mM		
C[n+]1ccc(C(=O)NCc2ccccc2)cc1 [enisamium, 4-(benzylcarbamoyl)-1-methylpyridinium]				EC90 [4]: 0.157 to 0.439 mM
O=C(NCc1ccc(O)cc1)c1ccncc1 [VR18-03, N-[(4-hydrophenyl)methyl]pyridine-4-carboxamide]	0.6	74 mM		

From PMC7263517 (bioRxiv, 2020)
